Experimental data as given in patent publication US20110104055A1, “SUBSTITUTED N-ARYL BENZAMIDES AND RELATED COMPOUNDS FOR TREATMENT OF AMYLOID DISEASES AND SYNUCLEINOPATHIES” (priority 2002, published 2011).

Key:
Aβ 1-42 fibrils [1] = biological target: T1, Aβ 1-42 fibrils (Homo sapiens, UniProt P05067); assay: Thioflavin T fluorometry, disruption of pre-formed Aβ 1-42 fibrils (Example 7); type: biochemical; details: for % inhibition of Aβ (Thioflavin T fluorometry): 25 μM pre-fibrillized Aβ 1-42, 37° C., 3 days (Table 3)
T1 construct: purchased Bachem Inc
Description: In this assay Thioflavin T binds specifically to fibrillar amyloid, and this binding produces a fluorescence enhancement at 485 nm that is directly proportional to the amount of amyloid fibrils formed. The higher the fluorescence, the greater the amount of amyloid fibrils formed (Naki et al., Lab. Invest. 65:104-110, 1991; Levine III, Protein Sci. 2:404-410, 1993; Amyloid: Int. J. Exp. Clin. Invest. 2:1-6, 1995).
Following 3 days of co-incubation, 50 μl of each incubation mixture was transferred into a 96-well microtiter plate containing 150 μl of distilled water and 50 μl of a Thioflavin T solution (i.e. 500 mM Thioflavin T in 250 mM phosphate buffer, pH 6.8). The fluorescence was read at 485 nm (444 nm excitation wavelength) using an ELISA plate fluorometer after subtraction with buffer alone or compound alone, as blank).

Aβ 1-42 fibrils [2] = biological target: T1, Aβ 1-42 fibrils; assay: Congo red binding assay, Aβ 1-42 fibrils (Example 11); type: biochemical; details: 3-day incubation
Description: In the Congo red binding assay, the ability of a test compound to alter amyloid (in this case, Aβ) binding to Congo red is quantified. In this assay, Aβ 1-42 and test compounds were incubated for 3 days and then vacuum filtered through a 0.2 μm filter. The amount of Aβ 1-42 retained in the filter was then quantitated following staining of the filter with Congo red. After appropriate washing of the filter, any lowering of the Congo red color on the filter in the presence of the test compound (compared to the Congo red staining of the amyloid protein in the absence of the test compound) was indicative of the test compound's ability to diminish/alter the amount of aggregated and congophilic Aβ.
In one study, the ability of Aβ fibrils to bind Congo red in the absence or presence of increasing amounts of the compounds or EDTA (at Aβ:test compound weight ratios of 1:1, 1:0.1, 1:0.01 or 1:0.001) was determined.

[3] = Aβ:test compound wt/wt ratio 1:0.001
[4] = Aβ:test compound wt/wt ratio 1:0.01
[5] = Aβ:test compound wt/wt ratio 1:0.1
[6] = Aβ:test compound wt/wt ratio 1:1

T1 sequence (P05067 672-713): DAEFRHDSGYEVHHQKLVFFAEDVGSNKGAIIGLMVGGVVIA

SMILES: O=C(O)CN(CCN(CC(=O)O)CC(=O)O)CC(=O)O [EDTA]
- % inhibition of Aβ (Thioflavin T fluorometry) (Aβ 1-42 fibrils [1]; [3]): 10.3 +/− 10.81%
- % inhibition of Aβ (Thioflavin T fluorometry) (Aβ 1-42 fibrils [1]; [4]): 0.0 +/− 2.26%
- % inhibition of Aβ (Thioflavin T fluorometry) (Aβ 1-42 fibrils [1]; [5]): 0.0 +/− 1.18%
- % inhibition of Aβ (Thioflavin T fluorometry) (Aβ 1-42 fibrils [1]; [6]): 5.0 +/− 11.39%
- disruption/disassembly of preformed Aβ 1-42 fibrils, in words (Aβ 1-42 fibrils [1]; Thioflavin T fluorometry, all concentrations tested, 3 days): no significant inhibition/disruption
- % Inhibition Aβ (result ± S.D.), Congo red binding (Aβ 1-42 fibrils [2]; [3]): 1.2 ± 7.95%
- % Inhibition Aβ (result ± S.D.), Congo red binding (Aβ 1-42 fibrils [2]; [4]): 8.4 ± 4.00%
- % Inhibition Aβ (result ± S.D.), Congo red binding (Aβ 1-42 fibrils [2]; [5]): 0.0 ± 6.83%
- % Inhibition Aβ (result ± S.D.), Congo red binding (Aβ 1-42 fibrils [2]; [6]): 8.4 ± 2.74%
- inhibition of Aβ 1-42 fibril binding to Congo red, in words (Aβ 1-42 fibrils [2]; all concentrations tested): no significant inhibition
